In patent US6737383B1, “Herbicidal oxadiazolidines” (priority 1999, dated 2004):

Key:
[1] = tested on: giant foxtail; assay: Test B pre/postemergence giant foxtail; assay type: in vivo, Setaria faberii
In short: (§1)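 Test chemicals in a non-phytotoxic solvent mixture with surfactant were sprayed preemergence onto planted seeds and postemergence onto plants 2 to 18 cm tall (1- to 4-leaf stage). After twelve to sixteen days in a greenhouse, injury was visually rated against untreated controls from 0 (no effect) to 10 (complete control).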

[2] = tested on: sugar beet; assay: Test B pre/postemergence sugar beet; assay type: in vivo, Beta vulgaris
In short: as §1

[3] = tested on: pigweed; assay: Test B pre/postemergence pigweed; assay type: in vivo, Amaranthus retroflexus
In short: as §1

[4] = tested on: wild oat; assay: Test B pre/postemergence wild oat; assay type: in vivo, Avena fatua
In short: as §1

[5] = tested on: wheat; assay: Test B pre/postemergence wheat; assay type: in vivo, Triticum aestivum
In short: as §1

[6] = tested on: purple nutsedge; assay: Test B pre/postemergence purple nutsedge; assay type: in vivo, Cyperus rotundus
In short: as §1

[7] = tested on: velvetleaf; assay: Test B pre/postemergence velvetleaf; assay type: in vivo, Abutilon theophrasti
In short: as §1

[8] = tested on: cocklebur; assay: Test B pre/postemergence cocklebur; assay type: in vivo, Xanthium strumarium
In short: as §1

[9] = tested on: surinam grass; assay: Test B pre/postemergence surinam grass; assay type: in vivo, Brachiaria decumbens
In short: as §1

[10] = tested on: rape; assay: Test B pre/postemergence rape; assay type: in vivo, Brassica napus
In short: as §1

[11] = tested on: soybean; assay: Test B pre/postemergence soybean; assay type: in vivo, Glycine max
In short: as §1

[12] = tested on: blackgrass; assay: Test B pre/postemergence blackgrass; assay type: in vivo, Alopecurus myosuroides
In short: as §1

[13] = tested on: bedstraw; assay: Test B pre/postemergence bedstraw; assay type: in vivo, Galium aparine; conditions: Preemergence
In short: as §1

[14] = tested on: crabgrass; assay: Test B pre/postemergence crabgrass; assay type: in vivo, Digitaria sanguinalis
In short: as §1

[15] = tested on: morningglory; assay: Test B pre/postemergence morningglory; assay type: in vivo, Ipomoea hederacea
In short: as §1

[16] = tested on: corn; assay: Test B pre/postemergence corn; assay type: in vivo, Zea mays
In short: as §1

[17] = Postemergence, Rate 62 g/ha, scale 0 to 10, 0 is no effect, 10 is complete control
[18] = Postemergence, Rate 125 g/ha, scale of 0 to 10 where 0 is no effect and 10 is complete control
[19] = Postemergence, Rate 250 g/ha, scale of 0 to 10, 0 is no effect, 10 is complete control
[20] = Preemergence, Rate 62 g/ha, scale of 0 to 10 where 0 is no effect and 10 is complete control
[21] = Preemergence, Rate 125 g/ha, scale of 0 to 10 where 0 is no effect and 10 is complete control
[22] = Preemergence, Rate 250 g/ha, scale 0 to 10 (0 no effect, 10 complete control)
[23] = Preemergence, Rate 500 g/ha, scale of 0 to 10 where 0 is no effect and 10 is complete control
[24] = Rate 500 g/ha, Postemergence, scale 0 to 10, 0 is no effect, 10 is complete control

SMILES: C#CC(C=C(C)C)n1c(=O)on(C(=O)N(c2ccccc2)C(C)C)c1=O (centres unmarked) [Compound 652]
- Plant response rating, Giant foxtail [1, 17]: 0
- Giant foxtail plant response rating [1, 18]: 3
- Giant foxtail plant response rating [1, 19]: 4
- Giant foxtail plant response rating [1, 20]: 8
- Giant foxtail plant response rating [1, 21]: 9
- Plant response rating, Giant foxtail [1, 22]: 9
- Plant response rating, Giant foxtail [1, 23]: 9
- Giant foxtail plant response rating [1, 24]: 8
- Plant response rating, Sugarbeets [2, 17]: 0
- Sugarbeets plant response rating [2, 20]: 0
- Sugarbeets plant response rating [2, 21]: 0
- Plant response rating, Sugarbeets [2, 22]: 0
- Plant response rating, Sugarbeets [2, 23]: 0
- Sugarbeets plant response rating [2, 24]: 2
- Plant response rating, Redroot pigweed [3, 17]: 0
- Redroot pigweed plant response rating [3, 18]: 0
- Redroot pigweed plant response rating [3, 20]: 0
- Redroot pigweed plant response rating [3, 21]: 0
- Plant response rating, Redroot pigweed [3, 22]: 0
- Plant response rating, Redroot pigweed [3, 23]: 0
- Redroot pigweed plant response rating [3, 24]: 6
- Plant response rating, Wild oats [4, 17]: 0
- Wild oats plant response rating [4, 18]: 0
- Wild oats plant response rating [4, 20]: 0
- Wild oats plant response rating [4, 21]: 0
- Plant response rating, Wild oats [4, 22]: 0
- Plant response rating, Wild oats [4, 23]: 0
- Wild oats plant response rating [4, 24]: 0
- Plant response rating, Wheat [5, 17]: 0
- Wheat plant response rating [5, 18]: 0
- Wheat plant response rating [5, 20]: 0
- Wheat plant response rating [5, 21]: 0
- Plant response rating, Wheat [5, 22]: 0
- Plant response rating, Wheat [5, 23]: 0
- Wheat plant response rating [5, 24]: 2
- Nutsedge plant response rating [6, 18]: 0
- Nutsedge plant response rating [6, 20]: 0
- Nutsedge plant response rating [6, 21]: 0
- Plant response rating, Nutsedge [6, 22]: 0
- Plant response rating, Nutsedge [6, 23]: 3
- Nutsedge plant response rating [6, 24]: 0
- Plant response rating, Velvetleaf [7, 17]: 0
- Velvetleaf plant response rating [7, 18]: 0
- Velvetleaf plant response rating [7, 20]: 0
- Velvetleaf plant response rating [7, 21]: 0
- Plant response rating, Velvetleaf [7, 22]: 0
- Plant response rating, Velvetleaf [7, 23]: 1
- Velvetleaf plant response rating [7, 24]: 0
- Plant response rating, Cocklebur [8, 17]: 0
- Cocklebur plant response rating [8, 18]: 0
- Cocklebur plant response rating [8, 19]: 0
- Cocklebur plant response rating [8, 20]: 0
- Cocklebur plant response rating [8, 21]: 0
- Plant response rating, Cocklebur [8, 22]: 0
- Plant response rating, Cocklebur [8, 23]: 3
- Cocklebur plant response rating [8, 24]: 0
- Plant response rating, B. signalgrass [9, 17]: 0
- Plant response rating, B. signalgrass [9, 18]: 0
- B. signalgrass plant response rating [9, 19]: 0
- B. signalgrass plant response rating [9, 20]: 0
- B. signalgrass plant response rating [9, 21]: 0
- Plant response rating, B. signalgrass [9, 22]: 2
- Plant response rating, B. signalgrass [9, 23]: 2
- B. signalgrass plant response rating [9, 24]: 2
- Plant response rating, Rape [10, 17]: 0
- Rape plant response rating [10, 20]: 0
- Rape plant response rating [10, 21]: 0
- Plant response rating, Rape [10, 22]: 0
- Plant response rating, Rape [10, 23]: 0
- Rape plant response rating [10, 24]: 0
- Plant response rating, Soybean [11, 17]: 0
- Soybean plant response rating [11, 18]: 0
- Soybean plant response rating [11, 20]: 0
- Soybean plant response rating [11, 21]: 0
- Plant response rating, Soybean [11, 22]: 0
- Plant response rating, Soybean [11, 23]: 0
- Soybean plant response rating [11, 24]: 3
- Plant response rating, Blackgrass [12, 17]: 0
- Blackgrass plant response rating [12, 18]: 0
- Blackgrass plant response rating [12, 19]: 0
- Blackgrass plant response rating [12, 20]: 0
- Blackgrass plant response rating [12, 21]: 0
- Plant response rating, Blackgrass [12, 22]: 0
- Plant response rating, Blackgrass [12, 23]: 2
- Blackgrass plant response rating [12, 24]: 0
- Bedstraw plant response rating ([13]; Rate 62 g/ha, scale of 0 to 10 where 0 is no effect and 10 is complete control): 0
- Bedstraw plant response rating ([13]; Rate 125 g/ha, scale of 0 to 10 where 0 is no effect and 10 is complete control): 0
- Plant response rating, Bedstraw ([13]; Rate 250 g/ha, scale 0 to 10 (0 no effect, 10 complete control)): 0
- Plant response rating, Bedstraw ([13]; Rate 500 g/ha, scale of 0 to 10 where 0 is no effect and 10 is complete control): 0
- Plant response rating, Crabgrass [14, 17]: 0
- Crabgrass plant response rating [14, 18]: 0
- Crabgrass plant response rating [14, 19]: 0
- Crabgrass plant response rating [14, 20]: 4
- Crabgrass plant response rating [14, 21]: 8
- Plant response rating, Crabgrass [14, 22]: 8
- Plant response rating, Crabgrass [14, 23]: 9
- Crabgrass plant response rating [14, 24]: 6
- Plant response rating, Morningglory [15, 17]: 3
- Morningglory plant response rating [15, 18]: 3
- Morningglory plant response rating [15, 19]: 5
- Morningglory plant response rating [15, 20]: 0
- Morningglory plant response rating [15, 21]: 0
- Plant response rating, Morningglory [15, 22]: 0
- Plant response rating, Morningglory [15, 23]: 0
- Morningglory plant response rating [15, 24]: 7
- Plant response rating, Corn [16, 17]: 0
- Corn plant response rating [16, 18]: 0
- Corn plant response rating [16, 19]: 0
- Corn plant response rating [16, 20]: 0
- Corn plant response rating [16, 21]: 0
- Plant response rating, Corn [16, 22]: 0
- Plant response rating, Corn [16, 23]: 0
- Corn plant response rating [16, 24]: 0
